# Measured values as given in US20240409594A1, “PHOTOA[…] CHANNEL MODULATOR” (INSTITUT NATIONAL DE LA SANTÉ ET DE LA RECHERCHE MÉDICALE, priority 2021, published 2024).
# Assays:
# [1] = target: human NaV1.1 channel (human) (UniProt P35498); assay: cell-based or functional assay
# [2] = target: human NaV1.2 channel (human) (UniProt Q99250); assay: cell-based or functional assay
# [3] = target: human NaV1.6 channel (human) (UniProt Q9UQD0); assay: cell-based or functional assay
# [4] = target: T1, hNaV1.6 (Homo sapiens, UniProt Q9UQD0); assay: Automated patch-clamp and photoactivation, hNaV1.6 current in HEK293 cells; assay type: cell-based
# T1 construct: expressed in transfected cells
# T1 sequence (Q9UQD0 whole entry): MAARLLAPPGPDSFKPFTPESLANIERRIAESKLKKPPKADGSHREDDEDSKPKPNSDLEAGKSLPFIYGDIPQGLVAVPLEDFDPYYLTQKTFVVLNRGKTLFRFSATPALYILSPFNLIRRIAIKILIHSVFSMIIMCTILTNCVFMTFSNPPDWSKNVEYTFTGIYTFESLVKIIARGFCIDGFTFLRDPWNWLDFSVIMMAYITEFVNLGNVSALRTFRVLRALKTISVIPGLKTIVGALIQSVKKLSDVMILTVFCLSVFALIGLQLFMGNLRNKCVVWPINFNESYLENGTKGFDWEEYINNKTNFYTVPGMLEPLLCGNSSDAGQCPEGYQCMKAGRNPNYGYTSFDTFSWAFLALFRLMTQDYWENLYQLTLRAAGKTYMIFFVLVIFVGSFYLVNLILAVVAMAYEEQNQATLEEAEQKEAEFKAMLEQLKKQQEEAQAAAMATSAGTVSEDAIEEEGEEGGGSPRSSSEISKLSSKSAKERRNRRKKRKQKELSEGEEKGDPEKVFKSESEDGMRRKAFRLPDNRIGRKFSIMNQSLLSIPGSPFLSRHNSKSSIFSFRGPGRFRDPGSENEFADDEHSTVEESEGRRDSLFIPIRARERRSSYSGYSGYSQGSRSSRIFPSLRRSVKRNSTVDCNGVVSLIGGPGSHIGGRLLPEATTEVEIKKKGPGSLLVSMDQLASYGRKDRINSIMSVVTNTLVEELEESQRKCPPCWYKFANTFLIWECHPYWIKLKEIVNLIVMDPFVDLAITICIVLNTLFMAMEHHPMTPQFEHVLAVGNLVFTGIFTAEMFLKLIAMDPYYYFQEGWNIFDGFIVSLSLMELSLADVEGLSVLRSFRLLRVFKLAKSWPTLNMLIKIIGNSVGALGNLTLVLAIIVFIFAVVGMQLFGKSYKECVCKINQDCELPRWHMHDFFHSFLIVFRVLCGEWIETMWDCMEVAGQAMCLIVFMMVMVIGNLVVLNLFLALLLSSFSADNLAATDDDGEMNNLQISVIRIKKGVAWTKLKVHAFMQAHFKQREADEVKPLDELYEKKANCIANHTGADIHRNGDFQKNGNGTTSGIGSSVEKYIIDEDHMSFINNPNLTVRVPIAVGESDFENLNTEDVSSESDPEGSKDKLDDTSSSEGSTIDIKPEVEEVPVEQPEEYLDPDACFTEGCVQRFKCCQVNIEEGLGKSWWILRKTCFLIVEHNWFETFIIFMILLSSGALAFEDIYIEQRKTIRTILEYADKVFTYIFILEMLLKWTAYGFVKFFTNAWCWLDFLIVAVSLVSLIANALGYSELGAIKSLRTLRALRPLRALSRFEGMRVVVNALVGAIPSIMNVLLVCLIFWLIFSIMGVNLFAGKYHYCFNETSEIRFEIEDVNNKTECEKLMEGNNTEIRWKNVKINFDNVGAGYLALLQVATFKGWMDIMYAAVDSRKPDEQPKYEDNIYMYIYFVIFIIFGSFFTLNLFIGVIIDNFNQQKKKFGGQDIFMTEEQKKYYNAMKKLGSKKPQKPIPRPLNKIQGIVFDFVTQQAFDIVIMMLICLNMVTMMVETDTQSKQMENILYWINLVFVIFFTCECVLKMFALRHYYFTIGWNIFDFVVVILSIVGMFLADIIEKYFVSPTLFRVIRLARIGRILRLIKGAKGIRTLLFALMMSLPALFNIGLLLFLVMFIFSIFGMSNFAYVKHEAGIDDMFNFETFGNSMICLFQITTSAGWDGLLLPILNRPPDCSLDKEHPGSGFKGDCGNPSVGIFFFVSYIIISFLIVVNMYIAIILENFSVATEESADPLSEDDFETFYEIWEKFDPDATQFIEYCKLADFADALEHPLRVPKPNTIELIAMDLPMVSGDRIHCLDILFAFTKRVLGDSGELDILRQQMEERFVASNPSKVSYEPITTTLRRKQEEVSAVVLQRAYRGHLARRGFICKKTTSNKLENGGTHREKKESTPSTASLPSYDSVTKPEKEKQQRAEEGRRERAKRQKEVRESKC
# [5] = target: hERG (Homo sapiens, UniProt Q12809); assay: Automated patch-clamp with photocontrol, hERG current in CHO cells; details: 100 nM; 365 nm, 45 mW/cm^2
# [6] = target: T2, KV1.2 (Homo sapiens, UniProt P16389); assay: Automated patch-clamp with photocontrol, KV1.2 current in CHO cells; assay type: cell-based; details: 100 nM; 365 nm, 45 mW/cm^2
# T2 construct: expressed in transfected cells; host or cells: CHO (transient)
# [7] = target: T3, hNaV1.2 (Homo sapiens, UniProt Q99250); assay: Automated patch-clamp and photoactivation, hNaV1.2 current in HEK293 cells; assay type: cell-based; details: 1 nM, 365 nm, 45 mW/cm^2
# T3 construct: expressed in transfected cells
# T3 sequence (Q99250 whole entry): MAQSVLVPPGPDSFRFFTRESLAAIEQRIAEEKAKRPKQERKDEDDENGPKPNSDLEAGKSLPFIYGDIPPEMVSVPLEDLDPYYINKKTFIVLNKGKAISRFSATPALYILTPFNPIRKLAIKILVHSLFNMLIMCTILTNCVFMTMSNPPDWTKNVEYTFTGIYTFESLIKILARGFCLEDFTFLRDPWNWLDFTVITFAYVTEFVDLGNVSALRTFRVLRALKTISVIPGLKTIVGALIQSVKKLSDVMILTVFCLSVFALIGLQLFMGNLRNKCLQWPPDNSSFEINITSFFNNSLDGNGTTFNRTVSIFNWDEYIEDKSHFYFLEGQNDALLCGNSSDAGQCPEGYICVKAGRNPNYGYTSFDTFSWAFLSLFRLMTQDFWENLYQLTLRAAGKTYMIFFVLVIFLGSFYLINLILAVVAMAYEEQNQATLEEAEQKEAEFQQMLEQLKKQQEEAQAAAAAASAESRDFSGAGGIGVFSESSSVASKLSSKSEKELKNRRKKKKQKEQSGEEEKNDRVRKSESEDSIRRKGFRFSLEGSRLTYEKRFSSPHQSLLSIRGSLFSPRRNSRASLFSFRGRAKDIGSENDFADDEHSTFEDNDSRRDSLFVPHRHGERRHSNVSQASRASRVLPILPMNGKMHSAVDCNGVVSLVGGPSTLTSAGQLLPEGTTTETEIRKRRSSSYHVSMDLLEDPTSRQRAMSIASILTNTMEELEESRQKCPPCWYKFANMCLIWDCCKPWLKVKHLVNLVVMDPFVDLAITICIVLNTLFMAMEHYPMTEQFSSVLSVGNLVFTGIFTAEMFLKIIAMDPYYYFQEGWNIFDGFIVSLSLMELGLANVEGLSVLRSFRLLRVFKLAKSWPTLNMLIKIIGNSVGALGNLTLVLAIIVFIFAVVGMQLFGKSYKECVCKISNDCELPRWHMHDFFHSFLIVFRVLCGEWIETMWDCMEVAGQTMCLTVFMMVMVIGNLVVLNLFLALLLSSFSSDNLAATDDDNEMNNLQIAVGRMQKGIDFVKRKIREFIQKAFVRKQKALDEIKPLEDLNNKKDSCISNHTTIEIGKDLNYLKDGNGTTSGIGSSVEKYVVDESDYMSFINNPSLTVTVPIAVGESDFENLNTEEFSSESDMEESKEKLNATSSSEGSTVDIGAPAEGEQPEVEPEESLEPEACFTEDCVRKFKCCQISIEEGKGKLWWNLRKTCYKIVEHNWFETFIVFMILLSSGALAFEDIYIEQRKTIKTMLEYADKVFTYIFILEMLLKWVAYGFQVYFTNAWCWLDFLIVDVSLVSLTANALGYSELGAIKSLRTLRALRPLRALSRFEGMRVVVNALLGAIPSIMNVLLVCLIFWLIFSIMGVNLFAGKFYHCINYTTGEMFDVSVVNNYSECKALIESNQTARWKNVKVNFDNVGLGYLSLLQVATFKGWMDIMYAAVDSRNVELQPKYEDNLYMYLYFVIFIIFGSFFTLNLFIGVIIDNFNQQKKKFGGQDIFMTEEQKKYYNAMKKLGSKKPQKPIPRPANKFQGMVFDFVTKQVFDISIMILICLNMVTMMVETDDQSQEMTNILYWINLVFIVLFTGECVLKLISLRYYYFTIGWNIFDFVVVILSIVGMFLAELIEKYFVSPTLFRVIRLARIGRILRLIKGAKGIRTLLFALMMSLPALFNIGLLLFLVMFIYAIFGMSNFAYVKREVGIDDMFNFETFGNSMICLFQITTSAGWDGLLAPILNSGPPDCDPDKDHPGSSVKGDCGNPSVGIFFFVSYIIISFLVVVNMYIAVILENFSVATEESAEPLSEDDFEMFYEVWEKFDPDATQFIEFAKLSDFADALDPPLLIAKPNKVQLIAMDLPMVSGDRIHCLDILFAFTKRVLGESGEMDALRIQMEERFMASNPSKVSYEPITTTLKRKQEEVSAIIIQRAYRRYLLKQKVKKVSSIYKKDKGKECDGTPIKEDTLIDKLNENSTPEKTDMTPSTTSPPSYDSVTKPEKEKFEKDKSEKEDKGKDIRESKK
# [8] = system: zebrafish larvae; assay: Zebrafish larvae paralysis model; assay type: in vivo; details: injected, then illumination
# [9] = target: shaker (Drosophila melanogaster, UniProt P08510); details: cited from earlier work
# Sequence of shaker (P08510 whole entry): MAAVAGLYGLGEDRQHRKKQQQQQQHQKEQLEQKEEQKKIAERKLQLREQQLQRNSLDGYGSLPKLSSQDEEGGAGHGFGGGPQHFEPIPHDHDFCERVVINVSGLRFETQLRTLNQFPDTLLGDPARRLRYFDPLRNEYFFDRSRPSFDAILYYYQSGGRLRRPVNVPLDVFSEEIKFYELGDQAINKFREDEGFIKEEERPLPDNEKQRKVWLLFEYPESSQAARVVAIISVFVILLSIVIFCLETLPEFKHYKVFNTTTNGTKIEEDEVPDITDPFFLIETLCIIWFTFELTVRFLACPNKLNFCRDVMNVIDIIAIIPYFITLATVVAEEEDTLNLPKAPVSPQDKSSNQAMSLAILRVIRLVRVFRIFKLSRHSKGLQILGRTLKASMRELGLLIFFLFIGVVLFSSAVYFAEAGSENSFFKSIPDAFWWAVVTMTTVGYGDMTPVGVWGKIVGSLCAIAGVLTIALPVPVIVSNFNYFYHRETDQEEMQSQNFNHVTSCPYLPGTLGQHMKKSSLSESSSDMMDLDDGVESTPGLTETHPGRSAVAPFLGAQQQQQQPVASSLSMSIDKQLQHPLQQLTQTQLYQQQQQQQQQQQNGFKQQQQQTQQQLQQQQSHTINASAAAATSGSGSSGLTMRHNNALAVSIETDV
# [10] = target: Kv1.2/KCNA2 (Homo sapiens, UniProt P16389); details: cited from earlier work
# [11] = target: Kv1.3/KCNA3 (Homo sapiens, UniProt P22001); details: cited from earlier work
# [12] = target: Kv1.5/KCNA5 (Homo sapiens, UniProt P22460); details: cited from earlier work
# [13] = target: Kv1.6/KCNA6 (Homo sapiens, UniProt P17658); details: cited from earlier work
# [14] = target: KCa1.1/KCNMA1 (Homo sapiens, UniProt Q12791); details: cited from earlier work
# [15] = system: nicotinic acetylcholine receptors (nAChR); details: cited from earlier work
# Sequence of human NaV1.6 channel (human) (Q9UQD0 whole entry): as the sequence (Q9UQD0 whole entry) above
# Sequence of human NaV1.2 channel (human) (Q99250 whole entry): as the sequence (Q99250 whole entry) above
molecule,measurement,setting,value
HwTxIV analog (HwTxIVG^1G^4K^36) (peptide),IC50 of hNaV1.1 current inhibition,[1],3.6 nM
same,IC50 of hNaV1.2 current inhibition,[2],3.23 nM
same,IC50 of NaV1.6 current inhibition,[3],22.4 nM
CC[C@H](C)[C@@H]1NC(=O)CNC(=O)[C@H](CC(C)C)NC(=O)[C@@H](NC(=O)CN)CSSC[C@@H]2NC(=O)[C@@H]3CSSC[C@@H](C(=O)N[C@@H](CCCCN)C(=O)N[C@@H](Cc4ccc(O)cc4)C(=O)N[C@@H](CCC(N)=O)C(=O)N[C@H](C(=O)N[C@@H](CCCCN)C(N)=O)[C@@H](C)CC)NC(=O)[C@H](Cc4c[nH]c5ccccc45)NC(=O)[C@H](CCCNC(=N)N)NC(=O)[C@H]([C@@H](C)O)NC(=O)[C@H](CCCCN)NC(=O)[C@H](CCCNC(=N)N)NC(=O)[C@H](CO)NC(=O)[C@H](CSSC[C@H](NC(=O)[C@H](C)NC(=O)[C@H](CCCCN)NC(=O)[C@H](Cc4ccccc4)NC1=O)C(=O)N[C@@H](CC(N)=O)C(=O)N1CCC[C@H]1C(=O)N[C@@H](CO)C(=O)N[C@@H](CC(N)=O)C(=O)N[C@@H](CC(=O)O)C(=O)N[C@@H](CCC(N)=O)C(=O)N3)NC(=O)[C@H](C(C)C)NC(=O)[C@H](CC(C)C)NC(=O)[C@H](CCCCN)NC(=O)[C@H](CO)NC(=O)[C@H](CO)NC(=O)[C@H](CCCCN)NC2=O [uncaged HwTxIV-Nvoc],IC50,"[4]; FIG. 2a / FIG. 3f series, caged vs non-caged vs uncaged, holding −100 mV, read-out: IC50 NaV1.6 current inhibition",15.2 nM
BeKm1-Nvoc: BeKm1 (hERG blocker) caged with a Nvoc protecting group (RPTDIKCSESYQCFPVCKSRFGKTNGRCVNGFCDCF),Effect of Nvoc photolysis by-product on NaV1.6,"[4]; by-product from uncaging 100 nM, negative control",inert
same,UV-dependent effect on hERG current after uncaging,[5],block
charybdotoxin-Nvoc,UV-dependent effect on KV1.2 current after uncaging,[6],block
AaHII-R^62K-Nvoc: Nvoc-grafted analogue of AaHII wherein Arg62 was replaced by Lys62,UV-dependent effect on hNaV1.2 current after uncaging,[7],slowing of inactivation
same,UV-dependent effect on hNaV1.2 current after uncaging,[7]; listed as AaHIIR^62K-Nvoc,activation
same,Paralysis of zebrafish larvae after illumination,[8],paralysis in all larvaes
QFTNVSCTTSKECWSVCQRLHNTSRGKCMNKKCRCYS [Charybdotoxin],Ki,[9],227 nM
same,Inhibition of Kv1.2/KCNA2,[10],nanomolar range
same,Inhibition of Kv1.3/KCNA3,[11],nanomolar range
same,Kd,[12],> 100 nM
same,Ki,[13],22 nM
same,IC50,[14],5.9 nM
same,Interaction with nicotinic acetylcholine receptors,[15],weak interaction
